Results on 15 compounds are retold here after patent publication US8399465B2, “Compounds with two fused bicyclic heteroaryl moieties as modulators of leukotriene A4 hydrolase” (Janssen Pharmaceutica NV, priority 2009, dated 2013).

In experiment [1] the test system is arachidonic acid-induced neutrophil influx in murine ear tissue. The experiment is described as follows: Murine arachidonic acid-induced inflammation model: neutrophil influx (myeloperoxidase) in ear. In kind it is in vivo, Balb/c mice. As to conditions: Mus musculus, read-out: % Inh. MPO. The method, then:
(§1) Assay 3: Murine Arachidonic Acid-Induced Inflammation Model
(§2) LTA4H inhibitor compounds of the present invention were dissolved in 20% cyclodextran/H2O at a concentration of 3 mg/mL. The solutions were administered by oral gavage to female Balb/c mice weighing approximately 20 grams each (0.2 mL per mouse, 30 mg of LTA4H inhibitor compound per kg). Sixty minutes after being administered an LTA4 inhibitor, each mouse received topical application of 20 μL of arachidonic acid (100 mg/mL in acetone) to the left ear and 20 μL of acetone only to the right ear. After 3 h, the mice were sacrificed, blood was withdrawn in heparinized syringes, and 8 mm ear biopsies were taken. Ear biopsies were weighed to determine edema and then frozen at −80° C. until needed for determination of neutrophil influx.
Neutrophil influx was quantified by measuring the activity of myeloperoxidase (MPO), a neutrophil-specific enzyme. […] Debris was removed by centrifugation at 14000×g for 10 min. […] The microtiter plate contents were held at room temperature until the sample with the highest concentration of MPO reached an absorbance value of 0.4 at 650 nm. The reaction was stopped by addition of 50 μL 1 M H2SO4 to each sample well, and the myeloperoxidase activity in each sample was determined from the absorbance at […]. The background value from the right ear, treated only with acetone, was subtracted from that for the left ear, treated with arachidonic acid in acetone, for each animal. The percent inhibition of neutrophil influx (% Inh. MPO) by compounds of the invention was determined by comparison to animals treated identically, except that the solution administered by oral gavage was devoid of inhibitor compound. All compounds were assayed in their free base form.

The test system of experiment [2] is LTB4 production in murine blood (LTA4H). The experiment is described as follows: LTB4 production by calcium ionophore-stimulated murine blood for LTA4H inhibitor activity. As to conditions: Mus musculus; murine blood diluted 1 in 15, A23187 stimulated; single determination or average; mark after value = form tested: ′ free base, ″ hydrochloride, ^ formate; read-out: IC50. In kind it is cell-based, CD-1 mice. The gist of the method: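 Heparinized blood from CD-1 mice was preincubated with compound for 15 min at 37° C, then stimulated with calcium ionophore A23187 (final 7 μg/mL) for 30 min. Centrifugation stopped the reaction, and LTB4 in the supernatant was measured by enzyme immunoassay. Values are single determinations or means of two or more.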

Experiment [3] deals with T1, recombinant human LTA4 hydrolase (rhLTA4H) (Homo sapiens, UniProt P09960).
T1 construct: made in house; host or cells: Spodoptera frugiperda (Sf-9) cells, baculovirus (pFastBac1)
T1 sequence (P09960 1-611): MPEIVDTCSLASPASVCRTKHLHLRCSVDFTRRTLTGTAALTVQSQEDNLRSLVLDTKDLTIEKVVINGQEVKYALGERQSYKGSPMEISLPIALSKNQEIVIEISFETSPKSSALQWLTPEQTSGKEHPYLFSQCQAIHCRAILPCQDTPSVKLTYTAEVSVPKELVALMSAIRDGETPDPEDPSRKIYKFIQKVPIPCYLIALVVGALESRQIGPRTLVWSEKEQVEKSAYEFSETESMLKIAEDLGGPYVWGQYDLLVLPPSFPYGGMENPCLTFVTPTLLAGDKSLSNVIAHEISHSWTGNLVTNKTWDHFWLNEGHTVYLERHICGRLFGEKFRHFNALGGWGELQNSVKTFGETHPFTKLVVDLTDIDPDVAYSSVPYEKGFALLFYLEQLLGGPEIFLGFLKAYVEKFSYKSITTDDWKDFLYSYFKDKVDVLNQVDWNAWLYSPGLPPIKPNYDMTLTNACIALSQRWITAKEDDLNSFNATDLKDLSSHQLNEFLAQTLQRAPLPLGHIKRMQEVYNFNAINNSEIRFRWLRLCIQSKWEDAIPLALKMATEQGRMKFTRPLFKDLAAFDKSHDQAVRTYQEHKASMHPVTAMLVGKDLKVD
The experiment can be described thus: Recombinant human LTA4 hydrolase assay for LTA4 hydrolase inhibitor activity. To be noted: rhLTA4H, LTB4 by immunoassay; single determination or average of two or more; mark after value = form tested: ′ free base, ″ hydrochloride, ^ formate; read-out: IC50. In kind it is biochemical. The procedure, abridged: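 Baculovirus/Sf-9-expressed human LTA4H (10 ng) was preincubated 10 min at rt with compound in assay buffer (10% DMSO in compound dilution), then reacted 30 min at rt with LTA4 free acid made from its methyl ester. LTB4 produced was measured by ELISA after dilution; IC50 from non-linear regression, single or averaged determinations.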

The test system of experiment [4] is ex vivo calcium ionophore-stimulated LTB4 production in whole blood. The experiment can be described thus: Murine arachidonic acid-induced inflammation model: ex vivo stimulated LTB4 production in blood. Also noted: species or system Balb/c mice. To be noted: Mus musculus; 30 mg/kg oral gavage; blood diluted 1:1, A23187 stimulated ex vivo; percent inhibition of LTB4 production; read-out: % Inh. LTB4. The method, then:
as §1, §2
The microtiter plate contents were incubated for 30 min at 37° C. in a humidified incubator. The reaction was terminated by centrifugation (833×g, 10 min at 4° C.). Supernatants were analyzed for LTB4 by a commercially available enzyme-linked immunoassay (Cayman Chemical Co.) in accordance with the manufacturer's instructions. The percent inhibition of ex vivo stimulated LTB4 production (% Inh. LTB4) was determined by comparison to animals treated identically except that the solution administered by oral gavage was devoid of inhibitor compound.

Where [5] appears, read: 30 mg/kg oral gavage, 60 min before topical arachidonic acid, ear biopsy after 3 h, percent inhibition of neutrophil influx.

Where a name gives a salt, the structure may show the parent alone. Read-outs that look alike come from different tables or passages of the source.

Turning to `O=C1CCCN1C1CCN(Cc2cc3cc(Oc4nc5ncccc5s4)ccc3o2)CC1` [Example 96, 1-{1-[5-(Thiazolo[4,5-b]pyridin-2-yloxy)-benzofuran-2-ylmethyl]-piperidin-4-yl}-pyrrolidin-2-one], the inhibition at 30 mg/kg in experiment [1] (setting [5]) came out at 53%; in experiment [4], 66%. Moreover, the figures for the IC50 in experiment [2] and in experiment [3] were 110 nM and 140 nM, respectively.
The corresponding values for `NC(=O)N1C[C@@H]2C[C@H]1CN2Cc1cc2cc(Oc3nc4ncccc4s3)ccc2o1` [Example 100, (1S,4S)-5-[5-(Thiazolo[4,5-b]pyridin-2-yloxy)-benzofuran-2-ylmethyl]-2,5-diaza-bicyclo[2.2.1]heptane-2-carboxylic acid amide] are 33%, 44%, 160 nM and 69 nM.
For the compound `c1cnc2nc(Oc3ccc4c(CCN5CCOCC5)coc4c3)sc2c1` [Example 256, 2-[3-(2-Morpholin-4-yl-ethyl)-benzofuran-6-yloxy]-thiazolo[4,5-b]pyridine], the inhibition at 30 mg/kg in experiment [1] (setting [5]) was found to be 83%; in experiment [4], 68.4%. The IC50 in experiment [2] is 260 nM; in experiment [3], 61 nM.
As to `CC(=O)N1C[C@H]2C[C@@H]1CN2C(=O)c1cc2cc(Oc3nc4ncccc4s3)ccc2o1` [Example 366, (1R,4R)-1-{5-[5-(Thiazolo[4,5-b]pyridin-2-yloxy)-benzofuran-2-carbonyl]-2,5-diaza-bicyclo[2.2.1]hept-2-yl}-ethanone], the inhibition at 30 mg/kg in experiment [1] (setting [5]) amounted to 50%; in experiment [4], 78%. The IC50 was found to be 61 nM in experiment [2] and 20 nM in experiment [3].
Turning to `COC[C@@H]1CCCN1Cc1coc2cc(Oc3nc4ncccc4s3)ccc12` [Example 186, (2S)-2-[3-(2-Methoxymethyl-pyrrolidin-1-ylmethyl)-benzofuran-6-yloxy]-thiazolo[4,5-b]pyridine], the figures for the inhibition at 30 mg/kg in experiment [1] (setting [5]) and in experiment [4] were 79% and 86%, respectively. The IC50 stood at 6 nM in experiment [2] and 1 nM in experiment [3].
The corresponding values for `O=C(O)C1CCN(Cc2cc3ccc(Oc4nc5ccccc5s4)cc3o2)CC1` [Example 77, 1-[6-(Benzothiazol-2-yloxy)-benzofuran-2-ylmethyl]-piperidine-4-carboxylic acid] are 77%, 85%, 30 nM and 35 nM.
The corresponding values for `O=C1CCCN1C1CCN(Cc2coc3cc(Oc4nc5ncccc5s4)ccc23)CC1` [Example 215, 1-{1-[6-(Thiazolo[4,5-b]pyridin-2-yloxy)-benzofuran-3-ylmethyl]-piperidin-4-yl}-pyrrolidin-2-one] are 78%, 88%, 21 nM and 3 nM.
As to `COCCN(C)Cc1coc2cc(Oc3nc4ncccc4s3)ccc12` [Example 184, (2-Methoxy-ethyl)-methyl-[6-(thiazolo[4,5-b]pyridin-2-yloxy)-benzofuran-3-ylmethyl]-amine], the results for the inhibition at 30 mg/kg in experiment [1] (setting [5]) and in experiment [4] were 53% and 82%, respectively. Further, the IC50 turned out to be 49 nM in experiment [2] and 8 nM in experiment [3].
The corresponding values for `NC(=O)C1CCN(Cc2coc3cc(Oc4nc5ncccc5s4)ccc23)CC1` [Example 213, 1-[6-(Thiazolo[4,5-b]pyridin-2-yloxy)-benzofuran-3-ylmethyl]-piperidine-4-carboxylic acid amide] are 92%, 80%, 25 nM and 5 nM.
Take `CC(=O)N1CC2CN(Cc3coc4cc(Oc5nc6ncccc6s5)ccc34)CC2C1` (stereo not drawn) [Example 211, meso-1-{5-[6-(Thiazolo[4,5-b]pyridin-2-yloxy)-benzofuran-3-ylmethyl]-hexahydro-pyrrolo[3,4-c]pyrrol-2-yl}-ethanone]: the inhibition at 30 mg/kg in experiment [1] (setting [5]) is 86%; in experiment [4], 92%. Also, the IC50 in experiment [2] worked out at 13 nM; in experiment [3] it was 11 nM.
Take `NC(=O)NC1CCN(Cc2coc3cc(Oc4nc5ncccc5s4)ccc23)CC1` [Example 240, {1-[6-(Thiazolo[4,5-b]pyridin-2-yloxy)-benzofuran-3-ylmethyl]-piperidin-4-yl}-urea]: the inhibition at 30 mg/kg came out at 0% in experiment [1] (setting [5]) and 50% in experiment [4]. Further, the 50% inhibitory concentration (IC50) in experiment [2] was 70 nM; in experiment [3], 5 nM.
For `NC(=O)N1C[C@@H]2C[C@H]1CN2Cc1coc2cc(Oc3nc4ncccc4s3)ccc12` [Example 209, (1S,4S)-5-[6-(Thiazolo[4,5-b]pyridin-2-yloxy)-benzofuran-3-ylmethyl]-2,5-diaza-bicyclo[2.2.1]heptane-2-carboxylic acid amide formate], the inhibition at 30 mg/kg in experiment [1] (Neutrophil) came to 82%; in experiment [4] it was 68%. In addition, the concentration for half-maximal inhibition (IC50) in experiment [2] was found to be 54 nM; in experiment [3] it was 53 nM.
On to `CC(=O)N1C[C@@H]2C[C@H]1CN2Cc1cc2cc(Oc3nc4ncccc4s3)ccc2o1` [Example 95, (1S,4S)-1-{5-[5-(Thiazolo[4,5-b]pyridin-2-yloxy)-benzofuran-2-ylmethyl]-2,5-diaza-bicyclo[2.2.1]hept-2-yl}-ethanone], for which the inhibition at 30 mg/kg in experiment [1] (setting [5]) was determined as 79%; in experiment [4], 80%. Also, the IC50 in experiment [2] came out at 26 nM; in experiment [3], 5 nM.
Turning to `CC(=O)N[C@H]1C[C@H]2CC[C@@H](C1)N2C(=O)c1coc2cc(Oc3nc4ncccc4s3)ccc12` [Example 369, meso-endo-N-{8-[6-(Thiazolo[4,5-b]pyridin-2-yloxy)-benzofuran-3-carbonyl]-8-aza-bicyclo[3.2.1]oct-3-yl}-acetamide], the results for the inhibition at 30 mg/kg in experiment [1] (setting [5]) and in experiment [4] were 76% and 58%, respectively. Moreover, the results for the IC50 in experiment [2] and in experiment [3] were 100 nM and 19 nM, respectively.
For `CC(=O)N[C@@H]1C[C@H]2CC[C@@H](C1)N2Cc1cc2ccc(Oc3nc4ncccc4s3)cc2o1` [Example 106, meso-exo-N-{8-[6-(Thiazolo[4,5-b]pyridin-2-yloxy)-benzofuran-2-ylmethyl]-8-aza-bicyclo[3.2.1]oct-3-yl}-acetamide], the inhibition at 30 mg/kg in experiment [1] (setting [5]) turned out to be 81%; in experiment [4], 85%. Besides, the concentration for half-maximal inhibition (IC50) in experiment [2] was 14 nM; in experiment [3] it was 7 nM.
